Test results: patent US20100120858A1, “Piperidine Derivatives” (Pfizer Inc., priority 2006, published 2010)
Structures can show the parent of a compound that is named as a salt.

Assays:
[1] = molecular target: human serotonin transporter (Homo sapiens, UniProt P31645); test: Human serotonin (hSERT) receptor binding, [125I]-RTI-55; conditions: membranes of HEK-293 cells transfected with human serotonin transporter cDNA, IC50 converted by Cheng-Prusoff
Method in brief: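 Membranes from HEK-293 cells expressing human SERT were incubated 90 min at room temperature in Krebs-HEPES buffer pH 7.4 with […] [125I]-RTI-55 and compound (10^−5 to 10^−12 M), in duplicate. Nonspecific binding defined with 10 μM citalopram; IC50 converted to Ki by Cheng-Prusoff.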

[2] = molecular target: human norepinephrine transporter (Homo sapiens, UniProt P23975); test: Human norepinephrine (hNET) receptor binding, [125I]-RTI-55; conditions: membranes of HEK-293 cells transfected with human norepinephrine transporter cDNA; 50 pM [125I]-RTI-55; IC50 converted by Cheng-Prusoff
Chain of human norepinephrine transporter (P23975 whole entry): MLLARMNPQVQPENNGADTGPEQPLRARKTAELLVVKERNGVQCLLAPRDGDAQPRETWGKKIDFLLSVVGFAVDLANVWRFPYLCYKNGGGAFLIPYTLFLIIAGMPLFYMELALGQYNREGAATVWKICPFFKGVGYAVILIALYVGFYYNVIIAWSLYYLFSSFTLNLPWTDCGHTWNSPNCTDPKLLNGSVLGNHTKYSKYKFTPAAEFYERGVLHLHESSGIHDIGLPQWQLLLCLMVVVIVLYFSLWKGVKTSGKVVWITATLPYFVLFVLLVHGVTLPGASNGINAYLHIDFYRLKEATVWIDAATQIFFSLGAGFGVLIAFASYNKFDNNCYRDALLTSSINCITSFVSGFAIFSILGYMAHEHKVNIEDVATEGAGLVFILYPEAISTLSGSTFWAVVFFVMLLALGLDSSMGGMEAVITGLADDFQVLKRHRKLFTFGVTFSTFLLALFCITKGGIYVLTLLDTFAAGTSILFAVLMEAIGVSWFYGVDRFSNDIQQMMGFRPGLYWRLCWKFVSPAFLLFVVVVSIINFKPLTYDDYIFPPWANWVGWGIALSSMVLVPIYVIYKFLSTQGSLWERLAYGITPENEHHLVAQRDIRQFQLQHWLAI
Method in brief: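 Membranes from HEK-293 cells expressing human NET, incubated 90 min at room temperature with 50 pM [125I]-RTI-55 and compound (10^−5 to 10^−12 M) in Krebs-HEPES pH 7.4. Nonspecific binding defined with 10 μM desipramine; filter-bound counts gave IC50, converted to Ki by Cheng-Prusoff.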

Chain of human serotonin transporter (P31645 whole entry): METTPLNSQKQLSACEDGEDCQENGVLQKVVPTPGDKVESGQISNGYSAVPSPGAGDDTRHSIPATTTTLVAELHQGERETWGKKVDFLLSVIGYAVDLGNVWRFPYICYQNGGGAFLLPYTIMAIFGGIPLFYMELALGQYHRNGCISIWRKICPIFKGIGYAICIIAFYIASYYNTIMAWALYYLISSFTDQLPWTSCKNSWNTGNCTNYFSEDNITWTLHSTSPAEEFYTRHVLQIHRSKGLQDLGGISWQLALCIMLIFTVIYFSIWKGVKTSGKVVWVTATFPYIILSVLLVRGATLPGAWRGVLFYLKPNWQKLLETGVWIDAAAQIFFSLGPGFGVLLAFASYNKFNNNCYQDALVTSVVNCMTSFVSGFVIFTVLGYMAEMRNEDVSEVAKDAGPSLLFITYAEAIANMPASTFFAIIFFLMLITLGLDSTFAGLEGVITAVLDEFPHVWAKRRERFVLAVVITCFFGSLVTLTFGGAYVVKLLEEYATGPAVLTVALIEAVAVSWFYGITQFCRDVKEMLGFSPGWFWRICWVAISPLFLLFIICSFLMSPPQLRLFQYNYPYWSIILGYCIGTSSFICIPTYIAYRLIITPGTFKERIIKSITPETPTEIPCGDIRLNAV

Row | SMILES | melting point | Ki [1] [nM] | Ki [2] [nM]
1 | Fc1ccc(Oc2ncccc2OC[C@@H]2CCCNC2)cc1.O=C(O)/C=C/C(=O)O [Example 56, (R)-2-(4-fluoro-phenoxy)-3-(piperidin-3-ylmethoxy)-pyridine fumaric acid] | 172 to 173 °C | – | –
2 | CCOc1ccccc1OC(c1ccccc1)[C@H]1CCCNC1 (mixture of isomers) (as salt: fumaric acid salt) (hydrate or solvate) [Example 106, (S)-3-[(2-ethoxy-phenoxy)-(R,S)-phenyl-methyl]-piperidine fumaric acid] | 82 to 88 °C (dec.) | – | –
3 | Fc1ccc(Oc2ncccc2OC(c2ccccc2)C2CCCNC2)cc1 (single isomer, unassigned; stereoisomer b) (as salt: fumaric acid salt) [Example 89, 2-(4-fluoro-phenoxy)-3-[((R or S)-phenyl)-((S)-piperidin-3-yl)-methoxy]-pyridine fumaric acid, stereoisomer B] | 150 to 152 °C | – | –
4 | CCOc1ncccc1OC(c1ccccc1)C1CCCNC1 (single isomer, unassigned; stereoisomer b) (as salt: fumaric acid salt) [Example 91, 2-ethoxy-3-[((R or S)-phenyl)-((S)-piperidin-3-yl)-methoxy]-pyridine fumaric acid, stereoisomer B] | 58 to 68 °C (dec.) | – | –
5 | CCOc1ncccc1OC(c1ccccc1)C1CCCNC1 (single isomer, unassigned; stereoisomer a) (as salt: fumaric acid salt) [Example 90, 2-ethoxy-3-[((R or S)-phenyl)-((S)-piperidin-3-yl)-methoxy]-pyridine fumaric acid, stereoisomer A] | 159 to 161 °C | – | –
6 | COCCOc1ccccc1OC(C)(C)[C@H]1CCCNC1 [Example 118, (S)-3-{1-[2-(2-methoxy-ethoxy)-phenoxy]-1-methyl-ethyl}-piperidine fumaric acid] | – | 2500 | 38
7 | Cc1ccc(OC[C@H]2CCCNC2)c(Oc2ccc(C(C)C)cc2)n1 [Example 20, (S)-2-[4-(1-methyl-ethyl)-phenoxy]-6-methyl-3-(piperidin-3-ylmethoxy)-pyridine fumaric acid] | – | 2400 | 4800
8 | C[C@H](Oc1ccccc1OCc1ccccc1)[C@H]1CCCNC1 [Example 108, (S)-3-[(S)-1-(2-benzyloxy-phenoxy)-ethyl]-piperidine oxalic acid] | – | 730 | 3
9 | Cc1ccc(OC[C@H]2CCCNC2)c(Oc2ccccc2C)n1 [Example 5, (S)-2-(2-methyl-phenoxy)-6-methyl-3-(piperidin-3-ylmethoxy)-pyridine fumaric acid] | – | 2800 | 8.4
10 | C[C@H](Oc1ccccc1OCC1CCC1)[C@H]1CCCNC1 [Example 110, (S)-3-[(S)-1-(2-cyclobutylmethoxy-phenoxy)-ethyl]-piperidine oxalic acid] | – | 420 | 3
11 | Cc1ccc(OC[C@H]2CCCNC2)c(Oc2c(F)cccc2F)n1 [Example 42, (S)-2-(2,6-difluoro-phenoxy)-6-methyl-3-(piperidin-3-ylmethoxy)-pyridine hydrochloride] | – | 110 | 3.6
12 | Cc1ccc(OC[C@H]2CCCNC2)c(Oc2ccccc2OC(C)C)n1 [Example 10, (S)-2-[2-(1-methyl-ethoxy)-phenoxy]-6-methyl-3-(piperidin-3-ylmethoxy)-pyridine fumaric acid] | – | 2600 | 10.1
13 | CCOc1ncccc1OC(c1ccccc1)C1CCCNC1 (single isomer, unassigned; stereoisomer b) [Example 91, 2-ethoxy-3-[((R or S)-phenyl)-((S)-piperidin-3-yl)-methoxy]-pyridine fumaric acid, stereoisomer B] | – | 430 | 99
14 | N#Cc1ccc(Oc2ncccc2OC[C@H]2CCCNC2)cc1F [Example 61, (S)-2-fluoro-4-[3-(piperidin-3-ylmethoxy)-pyridin-2-yloxy]-benzonitrile fumaric acid] | – | > 10000 | 140
15 | Fc1ccc(Oc2ncccc2OC(c2ccccc2)C2CCCNC2)cc1 (single isomer, unassigned; stereoisomer a) (as salt: fumaric acid salt) (hydrate or solvate) [Example 88, 2-(4-fluoro-phenoxy)-3-[((R or S)-phenyl)-((S)-piperidin-3-yl)-methoxy]-pyridine fumaric acid, stereoisomer A] | 191 to 192 °C | – | –
16 | Fc1ccc(Oc2ncccc2OC[C@H]2CCCNC2)c(F)c1 [Example 54, (S)-2-(2,4-difluoro-phenoxy)-3-(piperidin-3-ylmethoxy)-pyridine fumaric acid] | – | 2700 | 3
17 | CC(C)COc1ncccc1OC(c1ccccc1)[C@H]1CCCNC1 (single isomer, unassigned; stereoisomer a) [Example 92, 2-isobutoxy-3-[((R or S)-phenyl)-((S)-piperidin-3-yl)-methoxy]-pyridine fumaric acid, stereoisomer A] | – | 140 | 29
18 | Cc1ccc(OC[C@H]2CCCNC2)c(Oc2ccccc2Cl)n1 [Example 7, (S)-2-(2-chloro-phenoxy)-6-methyl-3-(piperidin-3-ylmethoxy)-pyridine fumaric acid] | – | 350 | 2.7
19 | Cc1ccc(OC[C@H]2CCCNC2)c(Oc2cccc3c2CCCC3)n1 [Example 19, (S)-6-methyl-3-(piperidin-3-ylmethoxy)-2-(5,6,7,8-tetrahydronaphthalen-1-yloxy)-pyridine fumaric acid] | – | 1900 | 86
20 | Cc1ccc(OC[C@H]2CCCNC2)c(Oc2ccccc2)n1 [Example 95, (S)-6-methyl-2-phenoxy-3-(piperidin-3-ylmethoxy)-pyridine fumaric acid] | – | 530 | 4
21 | CCOc1ccccc1OC[C@H]1CCCNC1 [Example 100, (S)-3-(2-ethoxy-phenoxymethyl)-piperidine fumaric acid] | – | 2600 | 33
22 | COc1cccc(Oc2nc(C)ccc2OC[C@H]2CCCNC2)c1OC [Example 9, (S)-2-(2,3-dimethoxy-phenoxy)-6-methyl-3-(piperidin-3-ylmethoxy)-pyridine fumaric acid] | – | ≥ 10000 | 3200
23 | Cc1ccc(OC[C@H]2CCCNC2)c(Oc2ccc(Cl)cc2Cl)n1 [Example 22, (S)-2-(2,4-dichloro-phenoxy)-6-methyl-3-(piperidin-3-ylmethoxy)-pyridine fumaric acid] | – | 79 | 4.7
24 | Clc1ccc(Oc2ncccc2OC[C@H]2CCCNC2)cc1Cl [Example 64, (S)-2-(3,4-dichloro-phenoxy)-3-(piperidin-3-ylmethoxy)-pyridine fumaric acid] | – | 860 | 17
25 | Fc1ccc(Oc2ncccc2OC(c2ccccc2)C2CCCNC2)cc1 (single isomer, unassigned; stereoisomer b) [Example 89, 2-(4-fluoro-phenoxy)-3-[((R or S)-phenyl)-((S)-piperidin-3-yl)-methoxy]-pyridine fumaric acid, stereoisomer B] | – | 590 | 43
26 | CCOc1ncccc1O[C@@H](CC)[C@H]1CCCNC1 [Example 86, (S,S)-2-ethoxy-3-(1-piperidin-3-yl-propoxy)-pyridine fumaric acid] | – | 705 | 13
